In US20090209525A1, “ENABLING METHODS TO IDENTIFY ALLOSTERIC MODULATORS OF RECEPTOR ACTIVITY” (priority 2006, published 2009):
Residue numbers refer to the chain shown, from its start. pEC50: −log10 of the molar value. Like-named read-outs stand apart in the source and are kept apart here.

Columns and labels:
rat M1 S109A receptor = target: T1, rat M1 S109A receptor (Rattus norvegicus, UniProt P08482, S109A); assay: R-SAT functional assay, S109A mutant; assay type: cell-based; conditions: Table 3; for Shift: EC50 S109A divided by EC50 wild-type; for pEC50 / Eff (%): S109A; for Eff (%): maximum response, normalized
T1 construct: expressed in transfected cells
T1 sequence (P08482 1-460 S109A): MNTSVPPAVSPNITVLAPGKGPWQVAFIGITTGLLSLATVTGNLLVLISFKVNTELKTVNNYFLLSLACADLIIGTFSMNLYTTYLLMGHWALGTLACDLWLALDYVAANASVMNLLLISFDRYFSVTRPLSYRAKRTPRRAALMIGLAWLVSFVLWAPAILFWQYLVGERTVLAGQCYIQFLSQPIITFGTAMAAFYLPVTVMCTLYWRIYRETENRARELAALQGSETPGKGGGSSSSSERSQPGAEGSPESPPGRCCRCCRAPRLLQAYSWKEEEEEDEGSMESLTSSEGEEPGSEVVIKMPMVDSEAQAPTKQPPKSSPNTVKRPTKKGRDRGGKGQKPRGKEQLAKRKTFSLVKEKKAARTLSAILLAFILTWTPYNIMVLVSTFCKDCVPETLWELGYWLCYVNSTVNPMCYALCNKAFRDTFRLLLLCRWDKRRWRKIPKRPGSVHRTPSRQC
Method: (§1) Cells are co-transfected for 18 h with DMEM containing 0.08 micrograms/ml of an expression vector for the expression of the mutant receptor and 0.3 micrograms/ml pSI-Bgal (Promega, Madison Wis.), and 0.5% v/v Polyfect (Qiagen, Valencia Calif.), as recommended by the manufacturer. On day three, the medium is replaced with DMEM containing 1% PSG, 0.5% calf serum, 2% cyto-sf3 (Kemp Biotechnologies, Frederick, Md.), and varying concentrations of the compounds to be tested. Cells are grown in a humidified atmosphere with 5% ambient CO2 for 5 days. The media is removed from the plates, and beta-galactosidase activity is measured by the addition of o-nitrophenyl -d-galactopyranoside in phosphate-buffered saline with 5% Nonidet P-40. […] The following equation is fitted to the data using GraphPad Prism software (San Diego, Calif.):
(§2) NIH-3T3 cells were grown in 96-well tissue culture plates to 70 to 80% confluence in Dulbecco's modified essential media (DMEM) supplemented with 100 units/ml penicillin, 100 micrograms/ml streptomycin, 0.3 mg/ml L-glutamine (1% PSG, GIBCO) and 10% calf serum (Sigma-Aldrich). Cells were transfected for 18 h with DMEM containing 0.08 micrograms/ml receptor DNA and 0.3 micrograms/ml pSI-Bgal (Promega, Madison Wis.), 0.5% v/v Polyfect (Qiagen, Valencia Calif.). Medium was replaced with DMEM containing 1% PSG, 0.5% calf serum, 2% cyto-sf3 (Kemp Biotechnologies, Frederick, Md.), and varying concentrations of ligand. […] Cells were grown in a humidified atmosphere with 5% ambient CO2 for 5 days. Medium was removed from the plates, and beta-galactosidase activity was measured by the addition of o-nitrophenyl -d-galactopyranoside in phosphate-buffered saline with 5% Nonidet P-40.

rat M1 D105A receptor = target: T2, rat M1 D105A receptor (Rattus norvegicus, UniProt P08482, D105A); assay: R-SAT functional assay, D105A mutant; assay type: cell-based; conditions: Table 3, maximum response
T2 construct: expressed in transfected cells; host or cells: NIH-3T3
T2 sequence (P08482 1-460 D105A): T1 sequence (P08482 1-460 S109A) with D105A, A109S
Method: as §1, §2

rat M1 N110A receptor = target: T3, rat M1 N110A receptor (Rattus norvegicus, UniProt P08482, N110A); assay: R-SAT functional assay, N110A mutant; assay type: cell-based; conditions: for Eff (%) / Shift / pEC50: Table 3; for Eff (%): maximum response, normalized; for Shift: EC50 N110A divided by EC50 wild-type
T3 construct: expressed in transfected cells; host or cells: NIH-3T3
T3 sequence (P08482 1-460 N110A): T1 sequence (P08482 1-460 S109A) with A109S, N110A
Method: as §1, §2

[1] = target: T4, CHO-hM1 cell membranes (muscarinic M1 receptor) (Homo sapiens, UniProt P11229); assay: ^3H-NMS dissociation rate assay; assay type: binding; conditions: for koff: read-out: koff of ^3H-NMS in the presence of the ligand
T4 construct: expressed in transfected cells; host or cells: CHO-hM1
T4 sequence (P11229 1-460): T1 sequence (P08482 1-460 S109A) with V5A, A109S, S254T, S309P, K320R, G337A, V413I
Method: Approximately 10 μg protein was added per well in the assay.

[2] = atropine-induced dissociation, result in words

SMILES | Shift (rat M1 S109A receptor) | pEC50 (rat M1 S109A receptor) | Eff (%) (rat M1 S109A receptor) | Eff (%) (rat M1 D105A receptor) | Eff (%) (rat M1 N110A receptor; N110A) | effect on dissociation rate of ^3H-NMS [1] | koff [1] [s⁻¹] | decrease in potency relative to wild-type (rat M1 N110A receptor; R-SAT, N110A) [fold] | Shift (rat M1 N110A receptor) | pEC50 (rat M1 N110A receptor; N110A) | effect on dissociation rate of ^3H-NMS [1, 2]
CCCCC1CCN(CCCC(=O)c2ccccc2C)CC1 [AC-42, 4-n-butyl-1-[4-(2-methylphenyl)-4-oxo-1-butyl] piperidine hydrogen chloride] | 1 | 6.80 | 59 ± 5 | no resp. | 7 ± 1 | significantly retarded | 0.00175 |  |  |  | 
CCCCC1CCN(CCCN2C(=O)COc3cc(F)ccc32)CC1 [AC-260584, 4-[3-(4-Butyl-piperidin-1-yl)-propyl]-7-fluoro-4H-benzo [1,4]oxazin-3-one] | 1 | 7.80 | 104 ± 12 | no resp. | 38 ± 6 |  | 0.0015 | 30 | 43 | 6.20 | significantly retarded
Clc1ccc2c(c1)N=C(N1CCNCC1)c1ccccc1N2 [NDMC, 8-chloro-11-(1-piperazinyl)-5H-dibenzo [b,e] [1,4] diazepine] | 2 | 7.00 | 68 ± 9 | no resp. | 66 ± 16 |  | 0.00338 |  | 21 | 6.10 | did not significantly retard
